Results published in patent publication US9163003B2, “4-piperidinyl compounds for use as tankyrase inhibitors” (NOVARTIS AG, priority 2011, dated 2015).

Experiments:
[1] = target: human tankyrase 1 PARP catalytic domain, TNKS1P (GST-tagged) (Homo sapiens (Human), UniProt O95271); assay: TNKS1 autoparsylation (AP) biochemical assay, LC/MS detection of nicotinamide; details: 20 nM enzyme, 250 μM NAD+, 60 min room temperature
Experimental: The human tankyrase 1 PARP catalytic domain, TNKS1P, was cloned into a pDONR221 vector using the Invitrogen Gateway Technology. This entry clone was then subcloned into the destination vector pDEST20 to obtain the N-terminal Glutathione S-transferase (GST)-tagged fusion protein.
The autoparsylation activity of the TNKS 1/2 or PARP1/2 enzymes was measured by the liquid chromatography-mass spectrometry (LC/MS) detection of nicotinamide as readout. Compound activity in inhibiting the TNKS and PARP autoparsylation was evaluated by IC50 measurements.

[2] = tested on: Wnt ligand-induced signaling; assay: Wnt-responsive Super-TOpFlash (STF) luciferase reporter gene assay in HEK293 cells; format: cell-based; details: Homo sapiens, Wnt3A condition medium induced
Experimental: Compound activity in inhibiting Wnt ligand-induced signaling was measured using a Wnt-responsive Super-TOpFlash (STF) luciferase reporter gene assay in HEK293 cells. On day 1 of the assay, cells were plated at a density of 8000 cells per well of 384-well plate in 25 μl medium containing 5% fetal bovine serum (FBS). On the second day, […] condition medium (CM) produced from mouse L cells was added to the cells to induce Wnt signaling, followed by addition of 5 μL of compounds each well in 10-point serial dilution. On the third day, the luciferase activity was measured by the Bright-Glo™ Luciferase Assay System following manufacture's protocol (Promega, E2620). The Inhibition was calculated as: (Maximum Wnt-induced signaling−Sample)/(Maximum Wnt-induced signaling−Background)*100. “Maximum Wnt-induced signaling” is the STF signal level induced by 20% Wnt3A CM without compound; and “Background” is the STF signal level without the addition of Wnt3A CM or compound.

PARP2 = PARP2 (Mus musculus (Mouse), UniProt O88554); assay: PARP2 autoparsylation biochemical assay, LC/MS detection of nicotinamide; details: read-out: PARP2 Ic50, 20 nM enzyme, 250 μM NAD+, 60 min room temperature
[3] = target: tankyrase 2 protein PARP domain, TNKS2P (GST-tagged) (Homo sapiens (Human), UniProt Q9H2K2); assay: TNKS2 autoparsylation (AP) biochemical assay, LC/MS detection of nicotinamide; details: 20 nM enzyme, 250 μM NAD+, 60 min room temperature
[4] = tested on: Non-small lung cancer ABC-1 cells; assay: Cellular proliferation assay, ABC-1 cells (CellTiter-Glo); format: cell-based; details: Homo sapiens, 72 h, 3 days of compound treatment
Experimental: Non-small lung cancer ABC-1 cells were plated at 5000 cells per well in 96-well plates and treated with 8 serial compound dilutions starting from 10 μM as the highest concentration. Viable cells were measured after 3 days of compound treatment using the CellTiter-Glo assay (Promega, G7570). Assay was performed following the manufacture protocol.

Human PARP1 = Human PARP1 (Homo sapiens (Human), UniProt P09874); assay: PARP1 autoparsylation biochemical assay, LC/MS detection of nicotinamide; details: read-out: PARP1 IC50, 20 nM enzyme, 250 μM NAD+, 60 min room temperature
Axin2 protein = assay: Cellular ELISA assay for stabilizing the Axin2 protein in SW480 cells; format: cell-based; details: Homo sapiens, 24 hrs treatment, read-out: Axin AC50
Experimental: Compound activity in stabilizing the Axin2 protein was measured by Sandwich Enzyme-Linked Immuosorbent (ELISA) assay in the colorectal cell line SW480. 30,000 SW480 cells were seeded per well in 96-well plate and incubated overnight prior to compound treatment. Cells were then treated with compounds in 6-point dilution starting at 10 μM for 24 hrs. Cells were then washed with 100 μL of cold Phosphate Buffer Saline (PBS), and lysed in 125 μl of cold 1× lysis buffer (Cell Signaling Technology, 9803) supplemented with Protease inhibitor (Roche, 11836170) and Phosphatase inhibitors (Sigma, P2850, P5726). For the ELISA assay, anti Axin-2 capture antibody (Strategic Diagnostics) antibody was diluted to a concentration of 1 μg/ml (1:1000) in Carbonate Coating buffer, pH 9.2 (Sigma, C3041-50CAP). 100μ of the diluted anti Axin-2 capture antibody per well was then used to coat the 96-well ELISA plate (Thermo Electron Corp., MicroLite 1 flat bottom plate #7571) overnight at 4° C. Plates were then washed three times with 300 μl/well of wash solution, PBST20 (PBS+0.05% Tween), and blocked with 300 μl/well 1% BSA/PBS (BSA, Millipore Probumin #82-045-1) for 1.5 hours at room temperature while shaking gently. After blocking, plates were then washed three times with 300 μl/well of wash solution. 100 μL of prepared SW480 cell lysate was then added to each well and incubated at room temperature for 2 hours while shaking gently. After washing, 100 μL of Biotinylated anti-Axin2 antibody (CST, 2151) was added to each well and incubated room temperature for 2 hours. 100 μL of Streptavidin-HRP (R&D systems, DY998) diluted 1:200 in 1% BSA/PBS was then added in each well and incubate for 30 mins at R/T in the dark. Signal was detected by Chemiluminescence (Pierce SuperSignal ELISA Femto #3704), and measured on PerkinElmer Wallac 1420 plate reader.

[5] = tested on: Herpes Simplex Virus (HSV); details: cited from earlier work

Chain of PARP2 (O88554 whole entry, the tested form may be a part): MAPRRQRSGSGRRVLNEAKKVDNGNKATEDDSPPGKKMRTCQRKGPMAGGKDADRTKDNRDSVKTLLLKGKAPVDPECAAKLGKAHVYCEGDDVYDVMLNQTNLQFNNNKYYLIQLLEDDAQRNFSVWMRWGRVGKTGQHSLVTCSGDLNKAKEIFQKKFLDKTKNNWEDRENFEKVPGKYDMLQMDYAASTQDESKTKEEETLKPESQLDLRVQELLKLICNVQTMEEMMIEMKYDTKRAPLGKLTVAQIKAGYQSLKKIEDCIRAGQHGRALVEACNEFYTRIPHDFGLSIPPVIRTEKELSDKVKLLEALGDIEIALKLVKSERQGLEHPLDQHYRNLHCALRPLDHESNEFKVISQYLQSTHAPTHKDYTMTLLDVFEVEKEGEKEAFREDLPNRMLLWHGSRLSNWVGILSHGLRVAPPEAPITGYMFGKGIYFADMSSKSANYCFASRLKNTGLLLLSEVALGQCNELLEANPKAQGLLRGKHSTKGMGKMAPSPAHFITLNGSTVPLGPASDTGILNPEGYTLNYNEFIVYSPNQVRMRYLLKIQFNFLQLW
Chain of Human PARP1 (P09874 whole entry): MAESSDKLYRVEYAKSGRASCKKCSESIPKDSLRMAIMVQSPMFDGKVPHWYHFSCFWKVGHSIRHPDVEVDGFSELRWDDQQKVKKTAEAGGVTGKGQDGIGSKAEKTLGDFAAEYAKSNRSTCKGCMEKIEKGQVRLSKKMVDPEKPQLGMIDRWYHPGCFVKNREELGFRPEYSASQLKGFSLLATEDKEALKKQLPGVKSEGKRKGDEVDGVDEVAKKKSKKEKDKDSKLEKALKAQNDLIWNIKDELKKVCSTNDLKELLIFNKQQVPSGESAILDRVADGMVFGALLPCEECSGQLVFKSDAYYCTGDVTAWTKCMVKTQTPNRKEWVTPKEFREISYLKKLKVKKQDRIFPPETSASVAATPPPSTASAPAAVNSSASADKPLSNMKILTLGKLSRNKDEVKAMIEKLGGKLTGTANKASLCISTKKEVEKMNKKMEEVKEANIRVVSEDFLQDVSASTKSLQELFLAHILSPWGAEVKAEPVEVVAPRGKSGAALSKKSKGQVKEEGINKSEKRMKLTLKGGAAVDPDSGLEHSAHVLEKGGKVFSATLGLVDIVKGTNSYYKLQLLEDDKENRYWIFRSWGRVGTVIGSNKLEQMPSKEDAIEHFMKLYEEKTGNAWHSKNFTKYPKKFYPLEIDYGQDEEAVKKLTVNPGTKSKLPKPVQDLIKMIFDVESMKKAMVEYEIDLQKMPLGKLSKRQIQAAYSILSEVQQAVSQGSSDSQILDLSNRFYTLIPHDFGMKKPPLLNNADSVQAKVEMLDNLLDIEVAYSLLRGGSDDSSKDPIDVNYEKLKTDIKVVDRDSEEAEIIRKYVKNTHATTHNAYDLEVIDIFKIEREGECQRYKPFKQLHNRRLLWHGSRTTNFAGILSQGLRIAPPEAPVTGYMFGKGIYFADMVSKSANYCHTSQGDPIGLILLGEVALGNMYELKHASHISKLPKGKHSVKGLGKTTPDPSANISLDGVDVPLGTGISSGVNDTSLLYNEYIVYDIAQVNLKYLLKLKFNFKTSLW
Chain of human tankyrase 1 PARP catalytic domain, TNKS1P (GST-tagged) (O95271 1112-1317): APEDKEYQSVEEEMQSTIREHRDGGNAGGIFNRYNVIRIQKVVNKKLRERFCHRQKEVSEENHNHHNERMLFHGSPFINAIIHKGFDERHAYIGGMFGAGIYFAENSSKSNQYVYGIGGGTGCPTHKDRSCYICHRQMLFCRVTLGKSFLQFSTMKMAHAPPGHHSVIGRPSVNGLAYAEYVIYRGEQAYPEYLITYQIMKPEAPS
Chain of tankyrase 2 protein PARP domain, TNKS2P (GST-tagged) (Q9H2K2 959-1164): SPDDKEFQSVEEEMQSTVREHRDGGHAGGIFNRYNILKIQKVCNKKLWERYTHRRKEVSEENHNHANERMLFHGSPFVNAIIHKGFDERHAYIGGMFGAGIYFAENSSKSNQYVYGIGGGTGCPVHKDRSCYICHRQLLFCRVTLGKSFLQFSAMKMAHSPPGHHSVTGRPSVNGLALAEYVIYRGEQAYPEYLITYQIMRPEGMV

Structure (SMILES)	IC50 [1]	IC50 [2]	IC50 (PARP2)	IC50 [3]	IC50 [4]	IC50 (Human PARP1)	AC50 (Axin2 protein)	HSV viral growth [5]	HSV viral protein expression [5]
COc1ccc(C(=O)C2CCN([C@H]3CCN(Cc4nc5ccccc(=O)c5[nH]4)C3=O)CC2)cc1C [Example 28, 2-{(S)-3-[4-(4-Methoxy-3-methyl-benzoyl)-piperidin-1-yl]-2-oxo-pyrrolidin-1-ylmethyl}-3H-cycloheptaimidazol-4-one]	19.5 ± 3.5 nM	1.5 ± 0.5 nM	2900 ± 300 nM	7 ± 1 nM	0.8 ± 0.9 nM	20200 ± 1500 nM	0.46 ± 0.2 nM		
Oc1nc(-c2ccc(C(F)(F)F)cc2)nc2c1CSCC2 [XAV939]								decreased viral growth	suppressed HSV viral protein expression
